The source made the active and inactive calls. The rule behind the calls is not given here.
Columns and labels:
[1] = biological target: T1, von Hippel-Lindau disease tumor suppressor/Methylosome protein WDR77 (Homo sapiens, UniProt Q9BQA1+P40337); experiment: PROTAC activity at MEP50/VHL in human MDA-MB-468 cells assessed as degradation measured at 0.5 uM after 72 hrs by Western blot analysis; assay type: cell-based
MDA-MB-468 = experiment: Cytotoxicity against human MDA-MB-468 cells assessed as cell viability measured after 7 days by CCK-8 assay; assay type: functional; conditions: MDA-MB-468, 168 h, time 7 day
[2] = biological target: T1, von Hippel-Lindau disease tumor suppressor/Methylosome protein WDR77; experiment: PROTAC activity at MEP50/VHL in human PC-3 cells assessed as degradation at 0.5 to 5 uM after 7 hrs by Western blot analysis; assay type: cell-based; conditions: dose 0.5-5 µM
[3] = biological target: T1, von Hippel-Lindau disease tumor suppressor/Methylosome protein WDR77; experiment: PROTAC activity at MEP50/VHL in human MDA-MB-468 cells assessed as degradation measured at 5 uM after 72 hrs by Western blot analysis; assay type: cell-based
[4] = biological target: T2, von Hippel-Lindau disease tumor suppressor/Protein arginine N-methyltransferase 5 (Homo sapiens, UniProt O14744+P40337); experiment: PROTAC activity at PRMT5/VHL in human MDA-MB-468 cells assessed as degradation measured at 0.5 uM after 72 hrs by Western blot analysis; assay type: cell-based
[5] = biological target: T2, von Hippel-Lindau disease tumor suppressor/Protein arginine N-methyltransferase 5; experiment: PROTAC activity at PRMT5/VHL in human PC-3 cells assessed as degradation at 0.5 to 5 uM after 7 hrs by Western blot analysis; assay type: cell-based; conditions: dose 0.5-5 µM
[6] = biological target: T2, von Hippel-Lindau disease tumor suppressor/Protein arginine N-methyltransferase 5; experiment: PROTAC activity at PRMT5/VHL in human MDA-MB-468 cells assessed as degradation measured at 5 uM after 72 hrs by Western blot analysis; assay type: cell-based
[7] = biological target: T2, von Hippel-Lindau disease tumor suppressor/Protein arginine N-methyltransferase 5; experiment: PROTAC activity at PRMT5/VHL in human MCF7 cells assessed as degradation at 5 uM after 3 days by Western blot analysis; assay type: cell-based; conditions: time 3.0 day
[8] = biological target: T1, von Hippel-Lindau disease tumor suppressor/Methylosome protein WDR77; experiment: PROTAC activity at MEP50/VHL in human MDA-MB-468 cells assessed as maximal degradation at 5 uM measured after 72 hrs by Western blot analysis relative to control; assay type: cell-based
[9] = biological target: T1, von Hippel-Lindau disease tumor suppressor/Methylosome protein WDR77; experiment: PROTAC activity at MEP50/VHL in human MDA-MB-468 cells assessed as degradation at 2 uM measured up to 48 hrs by Western blot analysis; assay type: cell-based
[10] = biological target: T1, von Hippel-Lindau disease tumor suppressor/Methylosome protein WDR77; experiment: PROTAC activity at MEP50/VHL in human MCF7 cells assessed as degradation at 0.5 uM after 3 days by Western blot analysis; assay type: cell-based; conditions: time 3.0 day
[11] = biological target: T1, von Hippel-Lindau disease tumor suppressor/Methylosome protein WDR77; experiment: PROTAC activity at MEP50/VHL in human MCF7 cells assessed as degradation at 5 uM after 3 days by Western blot analysis; assay type: cell-based; conditions: time 3.0 day
[12] = biological target: T2, von Hippel-Lindau disease tumor suppressor/Protein arginine N-methyltransferase 5; experiment: PROTAC activity at PRMT5/VHL in human MCF7 cells assessed as degradation at 0.5 uM after 3 days by Western blot analysis; assay type: cell-based; conditions: time 3.0 day
[13] = biological target: Protein arginine N-methyltransferase 5 (Homo sapiens, UniProt O14744); experiment: Inhibition of PRMT5 (unknown origin) using S-adenosylmethionine (SAM) using as substrate preincubated for 30 mins followed by substrate addition measured after 60 mins by microplate reader
[14] = biological target: T2, von Hippel-Lindau disease tumor suppressor/Protein arginine N-methyltransferase 5; experiment: PROTAC activity at PRMT5/VHL in human MDA-MB-468 cells assessed as maximal degradation at 5 uM measured after 72 hrs by Western blot analysis relative to control; assay type: cell-based
[15] = biological target: T2, von Hippel-Lindau disease tumor suppressor/Protein arginine N-methyltransferase 5; experiment: PROTAC activity at PRMT5/VHL in human MDA-MB-468 cells assessed as degradation at 2 uM measured up to 12 hrs by Western blot analysis; assay type: cell-based
[16] = biological target: T2, von Hippel-Lindau disease tumor suppressor/Protein arginine N-methyltransferase 5; experiment: PROTAC activity at […]/VHL in human MDA-MB-468 cells assessed as relative protein level at 0.5 uM measured after 24 hrs by Western blot analysis; assay type: cell-based
[17] = biological target: T2, von Hippel-Lindau disease tumor suppressor/Protein arginine N-methyltransferase 5; experiment: PROTAC activity at PRMT5/VHL in human MDA-MB-468 cells assessed as relative protein level at 5 uM measured after 24 hrs by Western blot analysis; assay type: cell-based
[18] = biological target: T1, von Hippel-Lindau disease tumor suppressor/Methylosome protein WDR77; experiment: PROTAC activity at MEP50/VHL in human MDA-MB-468 cells assessed as relative protein level at 5 uM measured after 24 hrs by Western blot analysis; assay type: cell-based
[19] = biological target: T1, von Hippel-Lindau disease tumor suppressor/Methylosome protein WDR77; experiment: PROTAC activity at MEP50/VHL in human MDA-MB-468 cells assessed as relative protein level at 0.5 uM measured after 24 hrs by Western blot analysis; assay type: cell-based

T2 sequence (O14744 whole entry, looked up): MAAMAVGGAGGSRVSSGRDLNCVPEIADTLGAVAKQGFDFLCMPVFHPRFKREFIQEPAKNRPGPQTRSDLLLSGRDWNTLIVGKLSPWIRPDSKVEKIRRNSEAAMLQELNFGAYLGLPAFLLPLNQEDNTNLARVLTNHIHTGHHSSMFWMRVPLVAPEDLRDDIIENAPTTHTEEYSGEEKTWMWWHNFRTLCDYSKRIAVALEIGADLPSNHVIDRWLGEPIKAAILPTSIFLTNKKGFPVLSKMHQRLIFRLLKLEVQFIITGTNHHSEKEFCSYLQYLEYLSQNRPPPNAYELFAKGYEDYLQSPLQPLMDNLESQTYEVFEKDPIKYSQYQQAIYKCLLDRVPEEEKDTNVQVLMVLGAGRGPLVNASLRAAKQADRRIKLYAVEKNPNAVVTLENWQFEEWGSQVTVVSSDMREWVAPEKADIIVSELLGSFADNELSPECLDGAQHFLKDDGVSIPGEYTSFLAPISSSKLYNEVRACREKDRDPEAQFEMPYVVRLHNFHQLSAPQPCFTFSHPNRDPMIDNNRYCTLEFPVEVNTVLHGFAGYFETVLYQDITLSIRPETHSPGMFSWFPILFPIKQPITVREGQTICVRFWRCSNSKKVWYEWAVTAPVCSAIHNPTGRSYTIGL
T2 sequence (P40337 whole entry, looked up): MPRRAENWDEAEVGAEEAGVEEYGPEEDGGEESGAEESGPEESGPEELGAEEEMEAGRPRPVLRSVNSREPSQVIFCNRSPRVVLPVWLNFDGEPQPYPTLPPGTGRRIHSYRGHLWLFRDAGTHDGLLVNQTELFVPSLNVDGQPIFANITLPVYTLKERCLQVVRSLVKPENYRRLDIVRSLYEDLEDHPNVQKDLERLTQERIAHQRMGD
T1 sequence (P40337 whole entry, looked up): as above
T1 sequence (Q9BQA1 whole entry, looked up): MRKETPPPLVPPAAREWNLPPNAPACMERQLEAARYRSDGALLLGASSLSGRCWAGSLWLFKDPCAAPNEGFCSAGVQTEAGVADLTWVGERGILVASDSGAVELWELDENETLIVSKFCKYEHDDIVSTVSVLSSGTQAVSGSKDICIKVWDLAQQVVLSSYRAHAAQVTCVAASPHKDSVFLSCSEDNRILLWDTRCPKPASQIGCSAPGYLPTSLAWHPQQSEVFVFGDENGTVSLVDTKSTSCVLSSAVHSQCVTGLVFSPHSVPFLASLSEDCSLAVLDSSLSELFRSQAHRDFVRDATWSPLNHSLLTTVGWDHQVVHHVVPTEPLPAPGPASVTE
Sequence of Protein arginine N-methyltransferase 5 (O14744 whole entry): as the sequence (O14744 whole entry, looked up) above

| SMILES | Activity [16] | Activity [17] | Activity [18] | Activity [19] | other results |
| --- | --- | --- | --- | --- | --- |
| Cc1ncsc1-c1ccc([C@H](CC(=O)NCCOCCOCCOCCOCCOCCC(=O)N2CCC(Nc3cc(C(=O)NC[C@H](O)CN4CCc5ccccc5C4)ncn3)CC2)NC(=O)[C@@H]2C[C@H](O)CN2C(=O)[C@@H](NC(=O)C2(F)CC2)C(C)(C)C)cc1 |  |  |  |  | Activity [1]: inactive; GI50 (MDA-MB-468): 9.9 µM; Activity [2]: inactive; Activity [3]: inactive; Activity [4]: inactive; Activity [5]: inactive; Activity [6]: inactive |
| Cc1ncsc1-c1ccc([C@H](C)NC(=O)[C@@H]2C[C@@H](O)CN2C(=O)[C@@H](NC(=O)COCCOCCOCCOCCOCC(=O)N2CC(Nc3cc(C(=O)NC[C@H](O)CN4CCc5ccccc5C4)ncn3)C2)C(C)(C)C)cc1 |  |  |  |  | GI50 (MDA-MB-468): > 20 µM; Activity [7]: Active; Activity [8]: 50%; Activity [9]: inactive; Activity [10]: Active; Activity [11]: Active; Activity [12]: Active; IC50 [13]: 0.69 µM; Activity [14]: 50%; Activity [15]: Active |
| Cc1ncsc1-c1ccc(CNC(=O)[C@@H]2C[C@@H](O)CN2C(=O)[C@@H](NC(=O)C2(F)CC2)C(C)(C)C)c(OCC(=O)NCCOCCC(=O)N2CCC(Nc3cc(C(=O)NC[C@H](O)CN4CCc5ccccc5C4)ncn3)CC2)c1 | Active | Active | Active | Active |  |
| Cc1ncsc1-c1ccc([C@H](C)NC(=O)[C@@H]2C[C@@H](O)CN2C(=O)[C@@H](NC(=O)CCOCCOCCOCCOCCOCCC(=O)N2CCC(Nc3cc(C(=O)NC[C@H](O)CN4CCc5ccccc5C4)ncn3)CC2)C(C)(C)C)cc1 | Active | Active | Active | Active |  |
| Cc1ncsc1-c1ccc([C@H](CC(=O)NCCCCCCCC(=O)N2CCC(Nc3cc(C(=O)NC[C@H](O)CN4CCc5ccccc5C4)ncn3)CC2)NC(=O)[C@@H]2C[C@@H](O)CN2C(=O)[C@@H](NC(=O)C2(F)CC2)C(C)(C)C)cc1 | Active | Active | Active | Active |  |
| Cc1ncsc1-c1ccc([C@H](CC(=O)NCCOCCOCCC(=O)N2CCC(Nc3cc(C(=O)NC[C@H](O)CN4CCc5ccccc5C4)ncn3)CC2)NC(=O)[C@@H]2C[C@@H](O)CN2C(=O)[C@@H](NC(=O)C2(F)CC2)C(C)(C)C)cc1 | Active | Active | Active | Active |  |
| Cc1ncsc1-c1ccc(CNC(=O)[C@@H]2C[C@@H](O)CN2C(=O)[C@@H](NC(=O)C2(F)CC2)C(C)(C)C)c(OCC(=O)NCCC(=O)N2CCC(Nc3cc(C(=O)NC[C@H](O)CN4CCc5ccccc5C4)ncn3)CC2)c1 | Active | Active | Active | Active |  |
| Cc1ncsc1-c1ccc(CNC(=O)[C@@H]2C[C@@H](O)CN2C(=O)[C@@H](NC(=O)C2(F)CC2)C(C)(C)C)c(OCC(=O)NCCOCCOCCOCCOCCC(=O)N2CCC(Nc3cc(C(=O)NC[C@H](O)CN4CCc5ccccc5C4)ncn3)CC2)c1 | inactive | inactive | Active | inactive |  |
| Cc1ncsc1-c1ccc([C@H](CC(=O)NCCOCCOCCOCCOCCOCCC(=O)N2CCC(Nc3cc(C(=O)NC[C@H](O)CN4CCCCC4)ncn3)CC2)NC(=O)[C@@H]2C[C@@H](O)CN2C(=O)[C@@H](NC(=O)C2(F)CC2)C(C)(C)C)cc1 |  |  |  |  | Activity [1]: inactive; GI50 (MDA-MB-468): > 20 µM; Activity [2]: inactive; Activity [3]: inactive; Activity [4]: inactive; Activity [5]: inactive; Activity [6]: inactive |
| Cc1ncsc1-c1ccc(CNC(=O)[C@@H]2C[C@@H](O)CN2C(=O)[C@@H](NC(=O)C2(F)CC2)C(C)(C)C)c(OCC(=O)N2CCC(Nc3cc(C(=O)NC[C@H](O)CN4CCc5ccccc5C4)ncn3)CC2)c1 | Active | Active | Active | Active |  |

Now from value to compound, other results behind:

| Activity [16] | Activity [17] | Activity [18] | Activity [19] | SMILES | other results |
| --- | --- | --- | --- | --- | --- |
| Active | Active | Active | Active | Cc1ncsc1-c1ccc(CNC(=O)[C@@H]2C[C@@H](O)CN2C(=O)[C@@H](NC(=O)C2(F)CC2)C(C)(C)C)c(OCC(=O)NCCCCCC(=O)N2CCC(Nc3cc(C(=O)NC[C@H](O)CN4CCc5ccccc5C4)ncn3)CC2)c1 |  |
| Active | Active | Active | Active | Cc1ncsc1-c1ccc(CNC(=O)[C@@H]2C[C@@H](O)CN2C(=O)[C@@H](NC(=O)C2(F)CC2)C(C)(C)C)c(OCC(=O)NCC(=O)N2CCC(Nc3cc(C(=O)NC[C@H](O)CN4CCc5ccccc5C4)ncn3)CC2)c1 |  |
| Active | Active | Active | Active | Cc1ncsc1-c1ccc([C@H](CC(=O)NCCC(=O)N2CCC(Nc3cc(C(=O)NC[C@H](O)CN4CCc5ccccc5C4)ncn3)CC2)NC(=O)[C@@H]2C[C@@H](O)CN2C(=O)[C@@H](NC(=O)C2(F)CC2)C(C)(C)C)cc1 |  |
| Active | Active | Active | Active | Cc1ncsc1-c1ccc([C@H](CC(=O)NCCOCCOCCOCCC(=O)N2CCC(Nc3cc(C(=O)NC[C@H](O)CN4CCc5ccccc5C4)ncn3)CC2)NC(=O)[C@@H]2C[C@@H](O)CN2C(=O)[C@@H](NC(=O)C2(F)CC2)C(C)(C)C)cc1 |  |
| Active | Active | Active | Active | Cc1ncsc1-c1ccc([C@H](CC(=O)NCCCC(=O)N2CCC(Nc3cc(C(=O)NC[C@H](O)CN4CCc5ccccc5C4)ncn3)CC2)NC(=O)[C@@H]2C[C@@H](O)CN2C(=O)[C@@H](NC(=O)C2(F)CC2)C(C)(C)C)cc1 |  |
| Active | Active | Active | Active | Cc1ncsc1-c1ccc([C@H](C)NC(=O)[C@@H]2C[C@@H](O)CN2C(=O)[C@@H](NC(=O)COCCOCCOCCOCCOCC(=O)N2CCC(Nc3cc(C(=O)NC[C@H](O)CN4CCc5ccccc5C4)ncn3)CC2)C(C)(C)C)cc1 |  |
| Active | Active | Active | Active | Cc1ncsc1-c1ccc([C@H](CC(=O)N2CCC(Nc3cc(C(=O)NC[C@H](O)CN4CCc5ccccc5C4)ncn3)CC2)NC(=O)[C@@H]2C[C@@H](O)CN2C(=O)[C@@H](NC(=O)C2(F)CC2)C(C)(C)C)cc1 |  |
| Active | Active | Active | Active | Cc1ncsc1-c1ccc([C@H](C)NC(=O)[C@@H]2C[C@@H](O)CN2C(=O)[C@@H](NC(=O)CCOCCOCCOCCOCCC(=O)N2CCC(Nc3cc(C(=O)NC[C@H](O)CN4CCc5ccccc5C4)ncn3)CC2)C(C)(C)C)cc1 |  |
| inactive | inactive | inactive | inactive | Cc1ncsc1-c1ccc(CNC(=O)[C@@H]2C[C@@H](O)CN2C(=O)[C@@H](NC(=O)C2(F)CC2)C(C)(C)C)c(OCC(=O)NCCOCCOCCC(=O)N2CCC(Nc3cc(C(=O)NC[C@H](O)CN4CCc5ccccc5C4)ncn3)CC2)c1 |  |
